Results reported in article PMC6063448, “Antimicrobial activity of linear lipopeptides derived from BP100 towards plant pathogens” (PLoS ONE, 2018).

How the values were obtained:
[1] = tested on: Fusarium oxysporum f. sp. lycopersici FOL 3 race 2; test: MIC, antifungal growth inhibition in microtiter plates (PDB); type: cell-based; conditions: Fo, 22°C, seven days, OD 600 nm, lowest concentration with no growth, given as interval of tested concentrations, three replicates, experiment repeated twice
Procedure, shortened: (§1)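 Conidial suspensions (10^3 conidia/mL P. expansum, 10^4 F. oxysporum) incubated with peptides in PDB with 0.003% chloramphenicol at 22 °C for seven days, OD600 read every 2 h. MIC is the lowest concentration with no growth at the end; triplicates, experiment repeated twice.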

[2] = tested on: Penicillium expansum EPS26; test: as above; type: cell-based; conditions: Pe, 22°C, seven days, OD 600 nm, lowest concentration with no growth, given as interval of tested concentrations, three replicates, experiment repeated twice
Procedure, shortened: as §1

[3] = tested on: defense-related genes in tomato plants; test: Induction of defense gene expression of tomato plants (RT-qPCR); type: in vivo, tomato cv. Rio Grande; conditions: for BCB gene expression, fold induction / ERT3 gene expression, fold induction / GluA gene expression, fold induction / Harp gene expression, fold induction / LOX gene expression, fold induction / Osm2 gene expression, fold induction / PPO gene expression, fold induction / PR1 gene expression, fold induction / PinII gene expression, fold induction / Sub1 gene expression, fold induction / Tas14 gene expression, fold induction: tomato leaves sprayed, 24 h, peptides and flg15 125 μM, JA 2.5 mM, ASM 300 mg/L, ΔΔCt relative to actin, above 2 = overexpression; for Defense gene expression in tomato plants (genes overexpressed): significant overexpression (REST2009)
Procedure: Seeds of tomato cv. Rio Grande plants were sown in hydroponic seed plugs (rockwool), germinated and grown under controlled greenhouse conditions (25 ± 2°C, 16 h light / 15 ± 2°C, 8 h dark, and 60% RH). Two-week old seedlings (two cotyledons) were transplanted into rockwool plugs (7.5×7.5×6.5 cm, Grodan Iberica). The experimental design consisted of three replicates of three plants per treatment. After two weeks, tomato leaves were sprayed with aqueous solutions of BP100, 9 selected derivatives and flg15 at 125 μM, jasmonic acid at 2.5 mM (Sigma-Aldrich, Sant Louis, Missouri, UE), and acybenzolar-S-methyl at 300 mg/L (Syngenta, Basel, Switzerland), until the run-off point. Water-sprayed plants were used as not treated controls. Twenty-four hours after product application leaf samples were collected and processed to extract RNA for RT-qPCR assays. Plant material was ground to a fine powder in liquid nitrogen with the Tissuelyzer II system (Qiagen). Total RNA was extracted from leaves using PureLink Plant RNA Reagent (Invitrogen, Life Technologies) according to the manufacturer’s manual. The RNA was solubilized in RNAse free water and was routinely subjected to DNAse treatment (Ambion® Turbo DNA-free™, Life Technologies) to remove any contaminant DNA. In each step, the RNA was quantified using a Nanodrop N-2000 spectrophotometer, and its integrity verified by denaturing agarose gel electrophoresis. First-strand of complementary DNA (cDNA) was generated from leave RNA using reverse transcriptase (High Capacity cDNA Reverse Transcription Kit, Invitrogen) according to the manufacturer’s manual.
To test gene defense induction in the treated tomato plants, a qPCR assay was performed. Quantitative PCR was carried out in a fluorometric thermal cycler (qPCR Quant Studio 5, Applied Biosystems) by using a Mix SYBR®Green PCR Master Mix (Applied Biosystems). The total reaction volume of this PCR reaction was 20 μL and the reaction mixture was 1 μL of each primer set at the adequate concentration, 10 μL of MixSyber Green, 6 μL of distilled water and 2 μL of cDNA. Melting curve analysis was performed after amplification to verify amplification specificity. A constitutive gene (actin gene) was used as reference control, and the following genes implicated in plant defense response were analyzed: Pathogenesis-related protein-1 (PR1), Harpin (Harp), Polyphenol oxidase (PPO), Subtilisin-like protease (Sub1), Blue copper binding-protein (BCB), Osmotin (Osm2), Acidic β-1,3 endoglucanase (GluA), Lypoxigenase (LOX), Protein inhibitor II (PinII), Dehydrin (Tas14) and Ethylene response transcription factor (ERT3). […] For each gene system, the concentration of the primer pair was optimized. The primer concentration was 100 nM for all the genes except for the GluA, Harp, PR1 and actin genes which optimized concentration was 300 nM. A calibration curve was prepared by cloning the corresponding DNA in the pSpark cloning vector (Canvax, Córdoba, Spain) according to the manufacturer instructions, which was then used to transform E. coli DH5α by standard procedures. The number of plasmid copies were quantified after purification from E. coli (QIAGEN Iberia, S. L., Madrid, Spain), and appropriate dilutions were prepared to obtain the standard curve. […] Relative quantification of gene expression was done using the ΔΔCt method. Each biological repetition treatment was analyzed in duplicate. The mean of the Ct values obtained were used to estimate the fold change value of the endogenous reference gene (actin) and the target plant defense genes.

Question: Which MIC [1] does the source give for `CC[C@H](C)[C@H](NC(=O)[C@H](CCCCN)NC(=O)[C@H](CCCCN)NC(=O)[C@H](Cc1ccccc1)NC(=O)[C@H](CC(C)C)NC(=O)[C@H](CCCCN)NC(=O)[C@@H](N)CCCCN)C(=O)N[C@@H](CC(C)C)C(=O)N[C@@H](CCCCN)C(=O)N[C@@H](Cc1ccc(O)cc1)C(=O)N[C@@H](CC(C)C)C(N)=O` [BP100, H-Lys-Lys-Leu-Phe-Lys-Lys-Ile-Leu-Lys-Tyr-Leu-NH2] here?
Answer: The MIC was 0.8 to 1.6 µM.

Question: And the MIC [2]?
Answer: Its MIC is greater than 25 µM.

Question: And the “BCB gene expression, fold induction” value [3]?
Answer: Its value is 0.8.

Question: What about the “ERT3 gene expression, fold induction” value [3] of the same molecule?
Answer: Its value is 1.0.

Question: What about the “GluA gene expression, fold induction” value [3] of the same molecule?
Answer: Its value is 1.5.

Question: What about the “Harp gene expression, fold induction” value [3] of the same molecule?
Answer: Its value is 0.5.

Question: And the “LOX gene expression, fold induction” value [3]?
Answer: The value was 1.2.

Question: What about the “Osm2 gene expression, fold induction” value [3] of the same molecule?
Answer: The value was 1.0.

Question: What about the “PPO gene expression, fold induction” value [3] of the same molecule?
Answer: Its value is 3.2.

Question: And the “PR1 gene expression, fold induction” value [3]?
Answer: The value was 2.

Question: What about the “PinII gene expression, fold induction” value [3] of the same molecule?
Answer: The value was 4.9.

Question: What about the “Sub1 gene expression, fold induction” value [3] of the same molecule?
Answer: The value was 1.8.

Question: And the “Tas14 gene expression, fold induction” value [3]?
Answer: The value was 1.4.

Question: What about the “Defense gene expression in tomato plants (genes overexpressed)” value (shortened to “Defense gene expression in tomato plants”) ([3]; treatment at 125 μM) of the same molecule?
Answer: Its value is “PPO and PinII”.

Question: With `CCCCCCCCCCCC(=O)NCCCC[C@H](NC(=O)[C@H](CC(C)C)NC(=O)[C@@H](NC(=O)[C@H](CCCCN)NC(=O)[C@H](CCCCN)NC(=O)[C@H](Cc1ccccc1)NC(=O)[C@H](CC(C)C)NC(=O)[C@H](CCCCN)NC(=O)[C@H](CCCCN)NC(C)=O)[C@@H](C)CC)C(=O)N[C@@H](Cc1ccc(O)cc1)C(=O)N[C@@H](CC(C)C)C(N)=O` [BP400, Ac-KKLFKKILK(COC11H23)YL-NH2] as the molecule, how does the MIC [1] read?
Answer: Its MIC is 6.2 to 12.5 µM.

Question: What about the MIC [2] of the same molecule?
Answer: Its MIC is greater than 25 µM.

Question: What about the “BCB gene expression, fold induction” value [3] of the same molecule?
Answer: Its value is 0.6.

Question: And the “ERT3 gene expression, fold induction” value [3]?
Answer: The value was 0.2.

Question: And the “GluA gene expression, fold induction” value [3]?
Answer: Its value is 0.1.

Question: What about the “Harp gene expression, fold induction” value [3] of the same molecule?
Answer: Its value is 1.4.

Question: What about the “LOX gene expression, fold induction” value [3] of the same molecule?
Answer: The value was 1.1.

Question: What about the “Osm2 gene expression, fold induction” value [3] of the same molecule?
Answer: The value was 0.9.

Question: And the “PPO gene expression, fold induction” value [3]?
Answer: Its value is 1.4.

Question: And the “PR1 gene expression, fold induction” value [3]?
Answer: The value was 0.1.

Question: And the “PinII gene expression, fold induction” value [3]?
Answer: Its value is 1.1.

Question: What about the “Sub1 gene expression, fold induction” value [3] of the same molecule?
Answer: Its value is 0.5.

Question: What about the “Tas14 gene expression, fold induction” value [3] of the same molecule?
Answer: The value was 8.3.

Question: And the “Defense gene expression in tomato plants” value ([3]; treatment at 125 μM)?
Answer: The value was “one gene (Osm2, Tas14 or BCB)”.

Question: For `CCCCCC(=O)NCCCC[C@H](NC(=O)[C@H](Cc1ccc(O)cc1)NC(=O)[C@H](CCCCN)NC(=O)[C@H](CC(C)C)NC(=O)[C@@H](NC(=O)[C@H](CCCCN)NC(=O)[C@H](CCCCN)NC(=O)[C@H](Cc1ccccc1)NC(=O)[C@H](CC(C)C)NC(=O)[C@H](CCCCN)NC(=O)[C@H](CCCCN)NC(C)=O)[C@@H](C)CC)C(N)=O` [BP378, Ac-KKLFKKILKYK(COC5H11)-NH2], which MIC [1] is on record?
Answer: The MIC was 0.8 to 1.6 µM.

Question: And the MIC [2]?
Answer: Its MIC is 3.1 to 6.2 µM.

Question: What about the “BCB gene expression, fold induction” value [3] of the same molecule?
Answer: The value was 1.3.

Question: And the “ERT3 gene expression, fold induction” value [3]?
Answer: Its value is 1.0.

Question: And the “GluA gene expression, fold induction” value [3]?
Answer: Its value is 0.6.

Question: What about the “Harp gene expression, fold induction” value [3] of the same molecule?
Answer: Its value is 1.2.

Question: What about the “LOX gene expression, fold induction” value [3] of the same molecule?
Answer: The value was 1.5.

Question: And the “Osm2 gene expression, fold induction” value [3]?
Answer: The value was 2.9.

Question: What about the “PPO gene expression, fold induction” value [3] of the same molecule?
Answer: Its value is 1.7.

Question: What about the “PR1 gene expression, fold induction” value [3] of the same molecule?
Answer: Its value is 2.0.

Question: And the “PinII gene expression, fold induction” value [3]?
Answer: The value was 5.8.

Question: And the “Sub1 gene expression, fold induction” value [3]?
Answer: Its value is 0.9.

Question: What about the “Tas14 gene expression, fold induction” value [3] of the same molecule?
Answer: Its value is 3.5.

Question: And the “Number of defense-related genes significantly induced” value ([3]; treatment at 125 μM)?
Answer: The value was 3.

Question: What about the “Defense gene expression in tomato plants” value ([3]; treatment at 125 μM) of the same molecule?
Answer: Its value is “PinII, Osm2 and Tas14”.

Question: With `CCCC(=O)NCCCC[C@H](NC(=O)[C@@H](NC(=O)[C@H](CCCCN)NC(=O)[C@H](CCCCN)NC(=O)[C@H](Cc1ccccc1)NC(=O)[C@H](CC(C)C)NC(=O)[C@H](CCCCN)NC(=O)[C@H](CCCCN)NC(C)=O)[C@@H](C)CC)C(=O)N[C@@H](CCCCN)C(=O)N[C@@H](Cc1ccc(O)cc1)C(=O)N[C@@H](CC(C)C)C(N)=O` [BP387, Ac-KKLFKKIK(COC3H7)KYL-NH2] as the molecule, how does the MIC [1] read?
Answer: Its MIC is 0.8 to 1.6 µM.

Question: What about the MIC [2] of the same molecule?
Answer: Its MIC is 6.2 to 12.5 µM.

Question: What about the “BCB gene expression, fold induction” value [3] of the same molecule?
Answer: The value was 1.7.

Question: What about the “ERT3 gene expression, fold induction” value [3] of the same molecule?
Answer: The value was 0.2.

Question: What about the “GluA gene expression, fold induction” value [3] of the same molecule?
Answer: Its value is 0.7.

Question: And the “Harp gene expression, fold induction” value [3]?
Answer: Its value is 1.2.

Question: And the “LOX gene expression, fold induction” value [3]?
Answer: The value was 0.7.

Question: What about the “Osm2 gene expression, fold induction” value [3] of the same molecule?
Answer: Its value is 1.0.

Question: What about the “PPO gene expression, fold induction” value [3] of the same molecule?
Answer: Its value is 1.3.

Question: What about the “PR1 gene expression, fold induction” value [3] of the same molecule?
Answer: Its value is 0.4.

Question: And the “Sub1 gene expression, fold induction” value [3]?
Answer: Its value is 0.8.

Question: What about the “Tas14 gene expression, fold induction” value [3] of the same molecule?
Answer: Its value is 1.0.

Question: What about the “Defense gene expression in tomato plants” value ([3]; treatment at 125 μM) of the same molecule?
Answer: The value was “none”.
